Where “and” joins values, the source holds several entries; their conditions need not be identical. Identical values can stand only once. Counter-ions that a name gives are not always drawn. Like-named read-outs stand apart in the source and are kept apart here.
Tests used:
Herpes simplex virus = assay: In vitro plaque inhibition of Herpes simplex virus in BSC-1 or Hela cells (Table 3); format: cell-based; settings: for inhibition at 3 µg/mL: read-out: PERCENT INHIBITION OF PLAQUES AT 3 mcg/ml; for inhibition at 6 µg/mL: read-out: PERCENT INHIBITION OF PLAQUES AT 6 mcg/ml; for inhibition at 12 µg/mL: read-out: PERCENT INHIBITION OF PLAQUES AT 12 mcg/ml; for inhibition at 25 µg/mL: read-out: PERCENT INHIBITION OF PLAQUES AT 25 mcg/ml; for inhibition at 50 µg/mL / PERCENT INHIBITION OF PLAQUES AT 50 mcg/ml: 50 mcg/ml; for inhibition at 50 µg/mL: read-out: PERCENT INHIBITION OF PLAQUES AT 50 mcg/ml; for inhibition at 100 µg/mL: 100 mcg/ml, read-out: PERCENT INHIBITION OF PLAQUES AT 100 mcg/ml
Protocol: The compounds of this invention also have anti-viral activity in vitro against Herpes simplex virus.
African green monkey kidney cells (BSC-1) or Hela cells (5-3) were grown in 25 cc. Falcon flasks at 37° C. in medium 199 with 5 percent inactivated fetal bovine serum (FBS), penicillin (150 units 1 ml.) and streptomycin (150 mcg./ml.). When confluent monolayers were formed, the supernatant growth medium was removed and 0.3 ml. of an appropriate dilution of Herpes simplex virus was added to each flask. After adsorption for one hour at room temperature, the virus infected cell sheet was overlaid with a medium comprising one part of 1 percent Ionagar No. 2 and one part double strength medium 199 with FCS, (fetal calf serum) penicillin, and streptomycin and also containing drug at concentrations of 100, 50, 25, 12, 6 and 3 micrograms per milliliter (mcg./ml.). The flask containing no drug served as a control. The stock solutions of 2,3-dihydroimidazo[1,2-c]pyrimidine compounds were made up in dimethylsulfoxide dilution at a concentration of 10^4 mcg./ml. The flasks were incubated for 72 hours at 37° C. […] A solution of 10 percent formalin and 2 percent sodium acetate was added to each flask to inactivate the virus and fix the cell sheet to the surface of the flask. The virus plaques, irrespective of size, were counted after staining the surrounding cell areas with crystal violet. The plaque count was compared to the control count at each drug concentration. The activity of the test compound was expressed as percentage plaque inhibition. Table 3, which follows, embodies the results of these determinations. In the table, column 1 gives the name of the compound, columns 2 through 6, the percent inhibition of herpes simplex plaques at various mcg./ml. levels of drug.

[1] = test system: Herpes simplex virus type I and Herpes simplex virus type II; assay: Intravaginal treatment of Herpes simplex virus type I and type II infection in guinea pigs, final score (Table 2); format: in vivo
Protocol: A second in-vivo test against Herpes simplex virus type I and Herpes simplex virus type II was carried out as follows. Guinea pigs were inoculated intravaginally by swabing the vagina with an absorbent cotton swab containing 2×10^4 plaque forming units of the virus. Prior to the inoculation with the virus, the vagina was swabbed with physiological saline to remove potential virus inhibitors. Treatment was started four hours after inoculation and continued for four days. The drug in a suitable base was introduced into the vaginal area also with an absorbent cotton swab. Controls in which the vehicle only were swabbed were included. Beginning on day 5 after inoculation and continuing through day 10, each animal was examined and scored from 0 to 4+ for secretion, inflammation, vesiculation and necrosis, thus yielding a possible top score of +16 per guinea pig. In the table, column 1 gives the name of the compound; column 2, the vehicle; column 3, the concentration; column 4, the number of animals used; and columns 5, the final score.

[2] = test system: cutaneous Herpes simplex virus type 1; assay: Topical treatment of cutaneous Herpes simplex virus type 1 lesions on guinea pig back, final score (Table 1); format: in vivo, guinea pigs; settings: lesions scored 0 to 4+
Protocol: Three epilated areas on each guinea pig back were inoculated with approximately 1×10^5 plaque forming units of virus using a Sterneedle triggered 10 times for each area. Untreated guinea pigs so inoculated developed consistent rosette lesions in about 96 hours. All three areas on the back of each guinea pig were drug-treated and these compared with separate control animals which were treated with the particular vehicle employed for administering the drug. The positive control animals were treated with 0.5-1.0 percent phosphonoacetic acid (PAA) suspended in the same vehicle as the drug. Animals were inoculated on the morning of day 1 and treated on the afternoon of day 1. Two treatments per day were administered through day 5 for a total of 10 treatments. Hair was again epilated on day 5 and readings were begun then and taken daily through day 10. Lesions for each area were scored from 0 to 4+, which was a fully developed herpatic lesion with inflammation vesicles and pustules. An average score was then calculated for each drug for each day for the number of treated areas and control areas. Usually 3-6 guinea pigs were used per drug. After scoring, a final score or mean of means was calculated for drug-treated and for control areas. Table I which follows gives the results of determinations carried out as outlined above on compounds coming within the scope of this invention. In the table, column 1 gives the name of the drugs, column 2, the vehicle, column 3, the concentration; column 4, the number of animals used; and columns 5, the final score.

[3] = 72 h, 6 mcg/ml, 72 hours at 37° C.
[4] = 72 h, 12 mcg/ml, 72 hours at 37° C.
[5] = 72 h, 25 mcg/ml, 72 hours at 37° C.
[6] = 25 mcg/ml, 72 hours at 37° C., hydrochloride
[7] = 72 hours at 37° C., hydrochloride
[8] = 72 h, 3 mcg/ml, 72 hours at 37° C.
[9] = vehicle R, 2.5 % conc., top score +16

## CSC1=NC(Cl)=CC2=NCC(c3ccccc3)N21 (racemic) [dl-3-phenyl-5-methylthio-7-chloro-2,3-dihydroimidazo[1,2-c]pyrimidine hydrochloride]
Herpes simplex virus; 3 mcg/ml, high virus input (HV)
  inhibition at 3 µg/mL: 23%
Herpes simplex virus; 3 mcg/ml, low virus input (LV)
  inhibition at 3 µg/mL: 57%
Herpes simplex virus; 6 mcg/ml, high virus input (HV)
  inhibition at 6 µg/mL: 84%
Herpes simplex virus; 6 mcg/ml, low virus input (LV)
  inhibition at 6 µg/mL: 100%

## CC1=NC(N(C)Cc2ccccc2)=CC2=NCCN12 [N,5-dimethyl-7-benzylamino-2,3-dihydroimidazo[1,2-c]pyrimidine hydrochloride]
Herpes simplex virus; [3]
  inhibition at 6 µg/mL: 0%
Herpes simplex virus; [4]
  inhibition at 12 µg/mL: 0%
Herpes simplex virus; [5]
  inhibition at 25 µg/mL: 0%
Herpes simplex virus; 72 h, 72 hours at 37° C.
  inhibition at 50 µg/mL: 0%
  inhibition at 100 µg/mL: 9%

## CCC1=NC(Cl)=CC2=NCCN21.Cl [5-Ethyl-7-chloro-2,3-dihydroimidazo[1,2-c]pyrimidine hydrochloride]
Herpes simplex virus; [6]
  PERCENT INHIBITION OF PLAQUES AT 25 mcg/ml: 33%
Herpes simplex virus; [7]
  PERCENT INHIBITION OF PLAQUES AT 50 mcg/ml: 76%
Herpes simplex virus; [8]
  inhibition at 3 µg/mL: 0%
Herpes simplex virus; [5]
  inhibition at 25 µg/mL: 50%
Herpes simplex virus; 72 h, 72 hours at 37° C.
  inhibition at 100 µg/mL: 100%
[1]; [9]
  Final Score: 2.83
[2]; vehicle D, 1.0 % conc.
  Final Score: 1.09
[2]; vehicle D, 1.5 % conc.
  Final Score: 1.53
[2]; vehicle D, 2.5 % conc.
  Final Score: 1.60

## CC1=NC(N2CCCC2)=CC2=NCCN12 [5-methyl-7-pyrrolidino-2,3-dihydroimidazo[1,2-c]pyrimidine hydrochloride]
Herpes simplex virus; [8]
  inhibition at 3 µg/mL: 0%
Herpes simplex virus; [3]
  inhibition at 6 µg/mL: 0%
Herpes simplex virus; [4]
  inhibition at 12 µg/mL: 0%
Herpes simplex virus; [5]
  inhibition at 25 µg/mL: 0%
Herpes simplex virus; 72 h, 72 hours at 37° C.
  inhibition at 50 µg/mL: 0%
  inhibition at 100 µg/mL: 7%

## CC1=NC(Cl)=CC2=NCCN12.Cl [5-methyl-7-chloro-2,3-dihydroimidazo[1,2-c]pyrimidine hydrochloride]
Herpes simplex virus; [7]
  PERCENT INHIBITION OF PLAQUES AT 50 mcg/ml: 82%
Herpes simplex virus; [3]
  inhibition at 6 µg/mL: 0%
Herpes simplex virus; [4]
  inhibition at 12 µg/mL: 0%
Herpes simplex virus; 72 h, 72 hours at 37° C.
  inhibition at 50 µg/mL: 85%
[1]; vehicle C, 2.5 % conc., top score +16
  Final Score: 7.9
[1]; vehicle D, 2.0 % conc., top score +16
  Final Score: 6.13
[1]; vehicle R, 2.0 % conc., top score +16, hydrochloride
  Final Score: 3.17 and 3.57
[2]; vehicle B, 1.0 % conc.
  Final Score: 2.06
[2]; vehicle D, 1.0 % conc.
  Final Score: 1.56
[2]; vehicle K, 1.0 % conc.
  Final Score: 1.95
[2]; vehicle R, 1.0 % conc.
  Final Score: 1.81

## CCCCCC1=NC(Cl)=CC2=NCCN21 [5-n-Amyl-7-chloro-2,3-dihydroimidazo[1,2-c]pyrimidine hydrochloride]
Herpes simplex virus; [8]
  inhibition at 3 µg/mL: 0%
Herpes simplex virus; [3]
  inhibition at 6 µg/mL: 0%
Herpes simplex virus; 72 h, 72 hours at 37° C.
  inhibition at 50 µg/mL: 100%

## Cl.O=[N+]([O-])C1=C(NCCCl)N=CN2CCN=C12 [7-(β-chloroethylamino)-8-nitro-2,3-dihydroimidazo[1,2-c]pyrimidine hydrochloride]
Herpes simplex virus; 72 h
  inhibition at 6 µg/mL: 33%
  inhibition at 12 µg/mL: 41%
  inhibition at 25 µg/mL: 68%
[1]; [9]
  Final Score: 1.25

## CC1=NC(Cl)=CC2=NCC(c3ccccc3)N12 (racemic) [dl-3-phenyl-5-methyl-7-chloro-2,3-dihydroimidazo[1,2-c]pyrimidine hydrochloride]
Herpes simplex virus; [6]
  PERCENT INHIBITION OF PLAQUES AT 25 mcg/ml: 68%
Herpes simplex virus; [7]
  PERCENT INHIBITION OF PLAQUES AT 50 mcg/ml: 95%
Herpes simplex virus; [8]
  inhibition at 3 µg/mL: 0%
Herpes simplex virus; [3]
  inhibition at 6 µg/mL: 0%
Herpes simplex virus; [5]
  inhibition at 25 µg/mL: 78%
Herpes simplex virus; 72 h, 72 hours at 37° C.
  inhibition at 50 µg/mL: 100%
[2]; vehicle D, 2.5 % conc.
  Final Score: 1.72

## CNC1=CC2=NCCN2C(C)=N1 [5-methyl-7-methylamino-2,3-dihydroimidazo[1,2-c]pyrimidine dihydrochloride]
Herpes simplex virus; [3]
  inhibition at 6 µg/mL: 0%
Herpes simplex virus; [4]
  inhibition at 12 µg/mL: 0%
Herpes simplex virus; [5]
  inhibition at 25 µg/mL: 27%
Herpes simplex virus; 72 h, 72 hours at 37° C.
  inhibition at 50 µg/mL: 18%
  inhibition at 100 µg/mL: 30%

## NC1=NC(Cl)=CC2=NCCN12 [5-Amino-7-chloro-2,3-dihydroimidazo[1,2-c]pyrimidine hydrochloride]
Herpes simplex virus; [8]
  inhibition at 3 µg/mL: 0%
Herpes simplex virus; [3]
  inhibition at 6 µg/mL: 0%
Herpes simplex virus; [4]
  inhibition at 12 µg/mL: 0%
Herpes simplex virus; [5]
  inhibition at 25 µg/mL: 0%
Herpes simplex virus; 72 h, 72 hours at 37° C.
  inhibition at 50 µg/mL: 0%
  inhibition at 100 µg/mL: 11%

## CC1=NC(Cl)=CC2=NCC(C)N12 (racemic) [dl-3,5-dimethyl-7-chloro-2,3-dihydroimidazo[1,2-c]pyrimidine hydrochloride]
Herpes simplex virus; [3]
  inhibition at 6 µg/mL: 0%
Herpes simplex virus; [4]
  inhibition at 12 µg/mL: 0%
Herpes simplex virus; [5]
  inhibition at 25 µg/mL: 12%
Herpes simplex virus; 72 h, 72 hours at 37° C.
  inhibition at 50 µg/mL: 74%

## CC1=NC(Cl)=CC2=NC(c3ccccc3)CN12.Cl (racemic) [2-phenyl-5-methyl-7-chloro-2,3-dihydroimidazo[1,2-c]pyrimidine hydrochloride]
Herpes simplex virus; 12 mcg/ml, 72 hours at 37° C., hydrochloride
  PERCENT INHIBITION OF PLAQUES AT 12 mcg/ml: 50%
Herpes simplex virus; [6]
  PERCENT INHIBITION OF PLAQUES AT 25 mcg/ml: 83%
Herpes simplex virus; [7]
  PERCENT INHIBITION OF PLAQUES AT 50 mcg/ml: 89%
Herpes simplex virus; [8]
  inhibition at 3 µg/mL: 0%
Herpes simplex virus; [4]
  inhibition at 12 µg/mL: 41%
Herpes simplex virus; [5]
  inhibition at 25 µg/mL: 87%
Herpes simplex virus; 72 h, 72 hours at 37° C.
  inhibition at 50 µg/mL: 100%

## CSC1=NC(Cl)=CC2=NCCN21.Cl [5-Methylthio-7-chloro-2,3-dihydroimidazo[1,2-c]pyrimidine hydrochloride]
Herpes simplex virus; 6 mcg/ml, 72 hours at 37° C., hydrochloride
  PERCENT INHIBITION OF PLAQUES AT 6 mcg/ml: 48%
Herpes simplex virus; [8]
  inhibition at 3 µg/mL: 30%
Herpes simplex virus; [3]
  inhibition at 6 µg/mL: 49%
Herpes simplex virus; [4]
  inhibition at 12 µg/mL: 100%
[1]; vehicle D, 2.5 % conc., top score +16
  Final Score: 3.81
[1]; [9]
  Final Score: .92
[2]; vehicle R, 2.5 % conc.
  Final Score: 2.00

## CSC1=NC(Cl)=C(c2ccccc2)C2=NCCN12.Cl [5-Methylthio-7-chloro-8-phenyl-2,3-dihydroimidazo[1,2-c]pyrimidine hydrochloride]
Herpes simplex virus; 3 mcg/ml, 72 hours at 37° C., hydrochloride
  PERCENT INHIBITION OF PLAQUES AT 3 mcg/ml: 100% and 58%
[2]; vehicle D, 2.5 % conc.
  Final Score: 1.97

From patent publication US4153695A, “Substituted 2,3-dihydro imidazo[1,2-c]pyrimidines” (priority 1978, dated 1979)
